Values belong to the compound of their own block, whether it stands above or below them.
How the values were obtained:
Cavia porcellus [1] = species on record: Cavia porcellus; experiment: Inhibition of Hartley guinea pig PDE4 assessed as hydrolization of cAMP by measuring [3H]cAMP at 100 nM by radioisotope method
Cavia porcellus [2] = experiment: Induction of bronchodilation in ovalbumin-sensitized guinea pig at 10 mg/kg, po administered 1 hr prior to ovalbumin challenge measured for 20 mins relative to vehicle-treated control; assay type: functional
Mus musculus = experiment: Inhibition of eosinophil infiltration in ovalbumin-sensitized mouse at 10 mg/kg, po qd for 2 days administered 30 mins prior to ovalbumin challenge relative to vehicle-treated control; assay type: functional
Cavia porcellus [3] = experiment: Induction of bronchodilation in ovalbumin-sensitized guinea pig at 10 mg/kg, po administered 4 hrs prior to ovalbumin challenge measured for 20 mins relative to vehicle-treated control; assay type: functional
Mustela putorius furo [4] = experiment: Toxicity in Marshall ferret assessed as vomiting at 300 mg/kg, po after 2 hrs; assay type: organism-based; set-up: dose 300 mg/kg, route oral; settings: in vivo
Cavia porcellus [5] = species on record: Cavia porcellus; experiment: Inhibition of immediate asthmatic response in ovalbumin-sensitized guinea pig; assay type: functional
[6] = Drug level in ovalbumin-sensitized guinea pig trachea assessed as radioactivity at 10 mg/kg, po after 0.5 hrs; assay type: ADME, organism-based, Cavia porcellus; set-up: dose 10 mg/kg, route oral; settings: in vivo
Cavia porcellus [7] = species on record: Cavia porcellus; experiment: Inhibition of late asthmatic response in ovalbumin-sensitized guinea pig; assay type: functional
[8] = Drug level in ovalbumin-sensitized guinea pig lung treated with [14C]-2-(3-chlorophenoxy)-3-[3-(3-hydroxypyridin-4-yl)propoxy]pyridine at 10 mg/kg, po after 0.5 hrs; assay type: ADME, organism-based, Cavia porcellus; set-up: dose 10 mg/kg, route oral; settings: in vivo
[9] = Drug level in ovalbumin-sensitized guinea pig plasma assessed as radioactivity at 10 mg/kg, po after 2 hrs; assay type: ADME, organism-based, Cavia porcellus; set-up: dose 10 mg/kg, route oral; settings: in vivo
[10] = Inhibition of Hartley guinea pig PDE4 assessed as hydrolization by radioisotope method; set-up: species or system Cavia porcellus
[11] = Drug level in ovalbumin-sensitized guinea pig plasma assessed as radioactivity at 10 mg/kg, po after 4 hrs; assay type: ADME, organism-based, Cavia porcellus; set-up: dose 10 mg/kg, route oral; settings: in vivo
Mustela putorius furo [12] = experiment: Toxicity in Marshall ferret assessed as vomiting at 10 mg/kg, po after 2 hrs; assay type: organism-based; set-up: dose 10 mg/kg, route oral; settings: in vivo
[13] = Drug level in ovalbumin-sensitized guinea pig lung assessed as radioactivity at 10 mg/kg, po after 2 hrs; assay type: ADME, organism-based, Cavia porcellus; set-up: dose 10 mg/kg, route oral; settings: in vivo
Mustela putorius furo [14] = experiment: Toxicity in Marshall ferret assessed as vomiting at 30 mg/kg, po after 2 hrs; assay type: organism-based; set-up: dose 30 mg/kg, route oral; settings: in vivo
[15] = Drug level in ovalbumin-sensitized guinea pig brain assessed as radioactivity at 10 mg/kg, po after 4 hrs; assay type: ADME, organism-based, Cavia porcellus; set-up: dose 10 mg/kg, route oral; settings: in vivo
[16] = Drug level in ovalbumin-sensitized guinea pig trachea assessed as radioactivity at 10 mg/kg, po after 4 hrs; assay type: ADME, organism-based, Cavia porcellus; set-up: dose 10 mg/kg, route oral; settings: in vivo
[17] = Drug level in ovalbumin-sensitized guinea pig trachea treated with [14C]-2-(3-chlorophenoxy)-3-[3-(3-hydroxypyridin-4-yl)propoxy]pyridine at 10 mg/kg, po after 0.5 hrs; assay type: ADME, organism-based, Cavia porcellus; set-up: dose 10 mg/kg, route oral; settings: in vivo
Phosphodiesterase 4 = Phosphodiesterase 4 (Homo sapiens, UniProt P27815+Q08499+Q07343+Q08493); experiment: Inhibition of human PDE4; assay type: protein assay
[18] = Drug level in ovalbumin-sensitized guinea pig plasma assessed as radioactivity at 10 mg/kg, po after 0.5 hrs; assay type: ADME, organism-based, Cavia porcellus; set-up: dose 10 mg/kg, route oral; settings: in vivo
[19] = Drug level in ovalbumin-sensitized guinea pig trachea assessed as radioactivity at 10 mg/kg, po after 2 hrs; assay type: ADME, organism-based, Cavia porcellus; set-up: dose 10 mg/kg, route oral; settings: in vivo
[20] = Drug level in ovalbumin-sensitized guinea pig plasma treated with [14C]-2-(3-chlorophenoxy)-3-[3-(3-hydroxypyridin-4-yl)propoxy]pyridine at 10 mg/kg, po after 0.5 hrs; assay type: ADME, organism-based, Cavia porcellus; set-up: dose 10 mg/kg, route oral; settings: in vivo
[21] = Drug level in ovalbumin-sensitized guinea pig lung treated with [14C]-2-(3-chlorophenoxy)-3-[3-(3-hydroxypyridin-4-yl)propoxy]pyridine at 10 mg/kg, po after 2 hrs; assay type: ADME, organism-based, Cavia porcellus; set-up: dose 10 mg/kg, route oral; settings: in vivo
[22] = Drug level in ovalbumin-sensitized guinea pig lung treated with [14C]-2-(3-chlorophenoxy)-3-[3-(3-hydroxypyridin-4-yl)propoxy]pyridine at 10 mg/kg, po after 4 hrs; assay type: ADME, organism-based, Cavia porcellus; set-up: dose 10 mg/kg, route oral; settings: in vivo
[23] = Drug level in ovalbumin-sensitized guinea pig brain assessed as radioactivity at 10 mg/kg, po after 2 hrs; assay type: ADME, organism-based, Cavia porcellus; set-up: dose 10 mg/kg, route oral; settings: in vivo
[24] = Drug level in ovalbumin-sensitized guinea pig lung assessed as radioactivity at 10 mg/kg, po after 4 hrs; assay type: ADME, organism-based, Cavia porcellus; set-up: dose 10 mg/kg, route oral; settings: in vivo
[25] = Drug level in ovalbumin-sensitized guinea pig brain assessed as radioactivity at 10 mg/kg, po after 0.5 hrs; assay type: ADME, organism-based, Cavia porcellus; set-up: dose 10 mg/kg, route oral; settings: in vivo
[26] = Inhibition of bovine PDE3; set-up: species or system Bos taurus
[27] = Drug level in ovalbumin-sensitized guinea pig lung assessed as radioactivity at 10 mg/kg, po after 0.5 hrs; assay type: ADME, organism-based, Cavia porcellus; set-up: dose 10 mg/kg, route oral; settings: in vivo
[28] = Drug level in ovalbumin-sensitized guinea pig plasma treated with [14C]-2-(3-chlorophenoxy)-3-[3-(3-hydroxypyridin-4-yl)propoxy]pyridine at 10 mg/kg, po after 2 hrs; assay type: ADME, organism-based, Cavia porcellus; set-up: dose 10 mg/kg, route oral; settings: in vivo
[29] = Drug level in ovalbumin-sensitized guinea pig plasma treated with [14C]-2-(3-chlorophenoxy)-3-[3-(3-hydroxypyridin-4-yl)propoxy]pyridine at 10 mg/kg, po after 4 hrs; assay type: ADME, organism-based, Cavia porcellus; set-up: dose 10 mg/kg, route oral; settings: in vivo
[30] = Drug level in ovalbumin-sensitized guinea pig trachea treated with [14C]-2-(3-chlorophenoxy)-3-[3-(3-hydroxypyridin-4-yl)propoxy]pyridine at 10 mg/kg, po after 4 hrs; assay type: ADME, organism-based, Cavia porcellus; set-up: dose 10 mg/kg, route oral; settings: in vivo
[31] = Drug level in ovalbumin-sensitized guinea pig trachea treated with [14C]-2-(3-chlorophenoxy)-3-[3-(3-hydroxypyridin-4-yl)propoxy]pyridine at 10 mg/kg, po after 2 hrs; assay type: ADME, organism-based, Cavia porcellus; set-up: dose 10 mg/kg, route oral; settings: in vivo
Mustela putorius furo [32] = experiment: Toxicity in po dosed Marshall ferret assessed as vomiting; assay type: organism-based; settings: in vivo
Mustela putorius furo [33] = experiment: Toxicity in Marshall ferret assessed as vomiting at 1 mg/kg, po after 2 hrs; assay type: organism-based; set-up: dose 1 mg/kg, route oral; settings: in vivo

inhibition (Cavia porcellus [1]): 27%
SMILES: O=C(c1cccc(Br)c1)c1ncccc1OCCCc1ccncc1

inhibition (Cavia porcellus [1]): 51%
SMILES: Brc1cccc(Nc2ncccc2OCCCc2ccncc2)c1

inhibition (Cavia porcellus [1]): 80%
SMILES: Brc1cccc(Oc2ncccc2OCCCc2ccncc2)c1
Activity (Cavia porcellus [2]): 49%
inhibition in vivo at 10 mg/kg (Mus musculus): 23%

inhibition (Cavia porcellus [1]): 87%
SMILES: Oc1cnccc1CCCOc1cccnc1Cc1cccc(Br)c1
Activity (Cavia porcellus [2]): 13%
inhibition in vivo at 10 mg/kg (Mus musculus): 44%

inhibition (Cavia porcellus [1]): 6%
SMILES: Oc1cnccc1CCCOc1cccnc1Oc1cc(Cl)cc(Cl)c1

inhibition (Cavia porcellus [1]): 74%
SMILES: Oc1cnccc1CCCOc1cccnc1Oc1cccc(F)c1
Activity (Cavia porcellus [2]): 55%
Activity (Cavia porcellus [3]): 9%

inhibition (Cavia porcellus [1]): 30%
SMILES: Oc1cnccc1CCCOc1cccnc1Oc1ccccc1Cl

IC50 [10]: 38 nM
IC50 (Phosphodiesterase 4): 33 nM
inhibition (Cavia porcellus [1]): 75%
IC50 [26]: > 30000 nM
SMILES: Oc1cnccc1CCCOc1cccnc1Oc1cccc(Cl)c1
Activity (Mustela putorius furo [4]): Non-toxic
inhibition (INH) (Cavia porcellus [5]): 45%
Drug uptake [6]: 142.1 ngequiv/g
inhibition (INH) (Cavia porcellus [7]): 40%
Drug uptake [8]: 21 ngequiv/g
Cp [9]: 452.8 ngequiv/ml
Cp [11]: 346.2 ngequiv/ml
Activity (Mustela putorius furo [12]): Non-toxic
Drug uptake [13]: 232.9 ngequiv/g
Activity (Mustela putorius furo [14]): Non-toxic
Drug uptake [15]: 14.5 ngequiv/g
Drug uptake [16]: 90.1 ngequiv/g
Drug uptake [17]: 14.4 ngequiv/g
Cp [18]: 387.6 ngequiv/ml
Activity (Cavia porcellus [2]): 55%
Drug uptake [19]: 85.1 ngequiv/g
Cp [20]: 1.7 ngequiv/ml
Drug uptake [21]: 12.8 ngequiv/g
Drug uptake [22]: 7.7 ngequiv/g
Drug uptake [23]: 17.7 ngequiv/g
Activity (Cavia porcellus [3]): 45%
Drug uptake [24]: 178.7 ngequiv/g
Drug uptake [25]: 31.9 ngequiv/g
Drug uptake [27]: 251.2 ngequiv/g

inhibition (Cavia porcellus [1]): 77%
SMILES: Oc1cnccc1CCCOc1cccnc1Oc1cccc(Br)c1
Activity (Mustela putorius furo [14]): Non-toxic
Activity (Cavia porcellus [2]): 70%
Activity (Cavia porcellus [3]): 12%
inhibition in vivo at 10 mg/kg (Mus musculus): 50%

IC50 [10]: 837 nM
SMILES: O=S(=O)(O)Oc1cnccc1CCCOc1cccnc1Oc1cccc(Cl)c1
Cp [28]: 219.2 ngequiv/ml
Drug uptake [8]: 29.2 ngequiv/g
Cp [29]: 194.4 ngequiv/ml
Drug uptake [17]: 17.2 ngequiv/g
Drug uptake [30]: 44 ngequiv/g
Cp [20]: 43.8 ngequiv/ml
Drug uptake [21]: 78.9 ngequiv/g
Drug uptake [22]: 79.9 ngequiv/g
Drug uptake [31]: 34.4 ngequiv/g

inhibition (Cavia porcellus [1]): 80%
SMILES: Brc1cccc(Sc2ncccc2OCCCc2ccncc2)c1
Activity (Mustela putorius furo [14]): Toxic
Activity (Cavia porcellus [2]): 77%
Activity (Mustela putorius furo [32]): Dose-dependent effect
inhibition in vivo at 10 mg/kg (Mus musculus): 50%

inhibition (Cavia porcellus [1]): 66%
SMILES: Oc1cnccc1CCCOc1cccnc1Sc1cccc(Br)c1
Activity (Cavia porcellus [2]): 8%
inhibition in vivo at 10 mg/kg (Mus musculus): 33%

inhibition (Cavia porcellus [1]): 54%
SMILES: COc1ccc(C2CNC(=O)C2)cc1OC1CCCC1 (centres undefined) [ROLIPRAM]
Activity (Mustela putorius furo [12]): Toxic
Activity (Cavia porcellus [2]): 50%
Activity (Mustela putorius furo [33]): Non-toxic
Activity (Mustela putorius furo [32]): Dose-dependent effect
Activity (Cavia porcellus [3]): 13%

inhibition (Cavia porcellus [1]): 46%
SMILES: Oc1cnccc1CCCOc1cccnc1Oc1ccc(Cl)cc1

IC50 [10]: 11500 nM
SMILES: O=C(O)[C@H]1O[C@@H](Oc2cnccc2CCCOc2cccnc2Oc2cccc(Cl)c2)[C@H](O)[C@@H](O)[C@@H]1O
Cp [28]: 130.8 ngequiv/ml
Drug uptake [8]: 46.5 ngequiv/g
Cp [29]: 79.3 ngequiv/ml
Drug uptake [17]: 53.6 ngequiv/g
Drug uptake [30]: 28.1 ngequiv/g
Cp [20]: 130.4 ngequiv/ml
Drug uptake [21]: 59.5 ngequiv/g
Drug uptake [22]: 33.8 ngequiv/g
Drug uptake [31]: 33.7 ngequiv/g

inhibition (Cavia porcellus [1]): 89%
SMILES: Brc1cccc(Cc2ncccc2OCCCc2ccncc2)c1
Activity (Cavia porcellus [2]): 63%
inhibition in vivo at 10 mg/kg (Mus musculus): 43%
